The values that follow come from US20240148888A1, “INTERCELLULAR ADHESION MOLECULE 1 (ICAM1) ANTIBODY DRUG CONJUGATE AND USES THEREOF” (priority 2021, published 2024).

Assay [1] concerns MDA-MB-231 cells. The settings on record: reported in literature; cited from earlier work.
Assay [2] concerns refractory TNBC. To be noted: refractory TNBC patients; cited from earlier work.
For assay [3], the system named is MDA-MB-436 tumors. Briefly: In vivo efficacy, orthotopic TNBC model, standard setting. To be noted: 5 mg/kg equivalent dosage.
Experimental: For the in vivo efficacy studies, orthotopic TNBC tumors (MDA-MB-436 or MDA-MB-231) were established in 6-8 weeks old female nude mice as described above. Tumors were grown to reach 100 mm^3 for standard setting treatment or 500 mm^3 for late-stage treatment. […] Tumor growth was monitored weekly using caliper. At the endpoint, animals were euthanized with CO2 and orthotopic tumors were excised to measure their mass.
Assay [4] addresses intercellular adhesion molecule 1 (ICAM1) from Homo sapiens (Homo sapiens) (UniProt P05362). The experiment in a line: cell-based or functional assay.

Sequence of intercellular adhesion molecule 1 (ICAM1) from Homo sapiens (Homo sapiens) (P05362 28-532 limits assumed): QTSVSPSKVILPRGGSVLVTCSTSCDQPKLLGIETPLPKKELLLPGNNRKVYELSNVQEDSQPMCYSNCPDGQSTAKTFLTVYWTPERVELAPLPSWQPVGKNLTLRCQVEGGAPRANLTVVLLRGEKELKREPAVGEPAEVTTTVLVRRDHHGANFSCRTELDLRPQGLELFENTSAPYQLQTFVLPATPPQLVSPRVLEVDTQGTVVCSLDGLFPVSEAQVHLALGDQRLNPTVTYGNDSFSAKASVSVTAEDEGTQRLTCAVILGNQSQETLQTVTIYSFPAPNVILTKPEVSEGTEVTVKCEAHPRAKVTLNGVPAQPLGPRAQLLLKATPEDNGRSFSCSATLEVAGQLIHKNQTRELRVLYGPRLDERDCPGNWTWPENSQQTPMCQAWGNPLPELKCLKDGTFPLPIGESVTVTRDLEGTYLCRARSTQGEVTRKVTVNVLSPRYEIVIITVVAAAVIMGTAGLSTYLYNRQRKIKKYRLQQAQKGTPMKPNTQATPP

For the molecule sacituzumab govitecan, the “Resistance of MDA-MB-231 cells” value in assay [1] is “resistant”. In assay [2], the Median progression-free survival is given as 5.5 months and the Response rate is recorded as around 33%.
In the case of `COc1cccc2c1C(=O)c1c(O)c3c(c(O)c1C2=O)C[C@@](O)(C(=O)CO)C[C@@H]3O[C@H]1C[C@H](N)[C@H](O)[C@H](C)O1` [free Dox, Doxorubicin], in assay [3], the “Anti-tumor efficacy” value was “very limited efficacy”.
In assay [4], “Phycoerythrin (PE)-conjugated anti-human ICAM1 antibody (Clone: HCD54)” yielded a cellular internalization rate in three TNBC cell lines relative to MCF10A cells (imaging flow cytometry) of 42 to 109 fold and a cellular internalization rate in three TNBC cell lines relative to non-targeting IgG (imaging flow cytometry) of 21 to 129 fold.
